From patent US20190315806A1, “POLYMYXIN DERIVATIVE, PREPARATION METHOD AND APPLICATION THEREOF” (priority 2016, published 2019)
Values after ≈ are worked out from the molar mass of the structure shown. Where a SMILES comes first, the peptide text is derived from it. Bridges are numbered along the chain shown (N, C = ends). [ ]: non-standard residue; d: D form. The star is where a group is joined. dPhe(4-CN) = N#Cc1ccc(C[C@@H](N)C(=O)O)cc1; dPhe(4-NH2) = Nc1ccc(C[C@@H](N)C(=O)O)cc1; Heptanoyl(6-Me) = CC(C)CCCCC(=O)*; X2 = CC[C@H](C)CCCCC(=O)*; dDab = NCC[C@@H](N)C(=O)O; Octanoyl = CCCCCCCC(=O)*; Dab = NCC[C@H](N)C(=O)O; X1 = CCCCCC(=O)CC(=O)*; X3 = CCCCC(=O)CC(=O)*

Columns and labels:
Assay type in all cases: cell-based
[1] = tested on: Klebsiella pneumoniae ATCC BAA-2146 (NDM-1); experiment: Antibacterial activity, MIC by dish double dilution method; conditions: ATCC BAA-2146
Procedure, shortened: (§1)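 Compounds were serially diluted twofold in broth, added to dishes, then mixed with molten agar to give 0.03–128 μg/mL final. Strains grown overnight in nutrient, brain heart infusion or HTM broth were diluted and spotted at 10^4 CFU/dot. Plates were incubated at 35° C. for 18–24 hours before MIC reading.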

[2] = tested on: Escherichia coli ATCC 25922; conditions: ATCC 25922
Procedure, shortened: as §1

[3] = tested on: Pseudomonas aeruginosa ATCC 27853; conditions: ATCC 27853
Procedure, shortened: as §1

[4] = tested on: Staphylococcus epidermidis ATCC 12228; conditions: ATCC 12228
Procedure, shortened: as §1

[5] = tested on: Acinetobacter baumannii ATCC 19606; conditions: ATCC 19606
Procedure, shortened: as §1

[6] = Nephrotoxicity test, renal cytotoxicity by MTT method; conditions: African green monkey
Protocol: African green monkey kidney cells (Vero cells) were cultured in MEM medium (Hyclone), 10% fetal calf serum (Invitrogen) was added before use, cultured at 37° C. under 5% CO2.
Experiment was carried out using MTT method. After digestion, cells in logarithmic growth phase were counted, then the cells were inoculated in a 96-well culture plate. After incubation for 24 h to be adherent, cells were treated with a concentration gradient of a compound of the invention (e.g., a compound prepared in the Embodiments) and the controls. After 72 h, the culture solution was removed, 100 uL of MTT reagent at a concentration of 0.5 mg/ml was added, the medium was removed after incubating for 3 hours in a 37° C. incubator. Add 150 μL DMSO solvent to each well, mix for 3 min, after which the absorbance at 570 nm (A) was measured with a microplate reader.
Cell viability %=(Adosed cell−Abackground)/(Acontrol cell−Abackground)×100%. The average value of 3 parallel wells was taken for each detection point, and the inhibition curve was drawn to calculate the IC50 value.
The African green monkey kidney cells (Vero cells) used in the experiment were from the Cell Resource Center of the Institute of Basic Medicine, Chinese Academy of Medical Sciences.

Row | SMILES | MIC K. pneumoniae ATCC BAA-2146 (NDM-1) [1] [µg/mL] | MIC E. coli ATCC 25922 [2] [µg/mL] | MIC P. aeruginosa ATCC 27853 [3] [µg/mL] | MIC S. epidermidis ATCC 12228 [4] [µg/mL] | MIC A. baumannii ATCC 19606 [5] [µg/mL] | IC50 at 72 h [6] [µg/mL]
1 | CCCCC(=O)CC(=O)N[C@@H](CCN)C(=O)N[C@H](C(=O)N[C@@H](CCN)C(=O)N[C@H]1CCNC(=O)[C@H]([C@@H](C)O)NC(=O)[C@H](CCN)NC(=O)[C@H](CCN)NC(=O)[C@H](CC(C)C)NC(=O)[C@@H](Cc2ccccc2)NC(=O)[C@H](CCN)NC1=O)[C@@H](C)O [Compound 4, 3-oxoheptanoyl-Dab-Thr-Dab-ring(4-10)[Dab-Dab-D-Phe-Lue-Dab-Dab-Thr]] (X3-[Dab]T[Dab][Dab][Dab][dF]L[Dab][Dab]T; lactam 4-C) | 2 (≈ 1.68 µM) | 0.5 (≈ 0.42 µM) | 2 (≈ 1.68 µM) | 128 (≈ 108 µM) | 2 (≈ 1.68 µM) | 110 ± 9.08 (≈ 92.2 µM)
2 | CCCCCC(=O)CC(=O)N[C@@H](CCN)C(=O)N[C@H](C(=O)N[C@@H](CCN)C(=O)N[C@H]1CCNC(=O)[C@H]([C@@H](C)O)NC(=O)[C@H](CCN)NC(=O)[C@H](CCN)NC(=O)[C@H](CC(C)C)NC(=O)[C@@H](Cc2ccccc2)NC(=O)[C@H](CCN)NC1=O)[C@@H](C)O [Compound 5, 3-oxooctanoyl-Dab-Thr-Dab-ring(4-10)[Dab-Dab-D-Phe-Lue-Dab-Dab-Thr]] (X1-[Dab]T[Dab][Dab][Dab][dF]L[Dab][Dab]T; lactam 4-C) | 0.5 (≈ 0.415 µM) | 0.5 (≈ 0.415 µM) | 1 (≈ 0.831 µM) | 32 (≈ 26.6 µM) | 2 (≈ 1.66 µM) | 93.7 ± 7.38 (≈ 77.9 µM)
3 | CC[C@H](C)CCCCC(=O)N[C@@H](CCN)C(=O)N[C@H](C(=O)N[C@@H](CCN)C(=O)N[C@H]1CCNC(=O)[C@H]([C@@H](C)O)NC(=O)[C@H](CCN)NC(=O)[C@H](CCN)NC(=O)[C@H](CC(C)C)NC(=O)[C@@H](Cc2ccc(N)cc2)NC(=O)[C@H](CCN)NC1=O)[C@@H](C)O [Compound 11, (S)-6-methyloctanoyl-Dab-Thr-Dab-ring(4-10)[Dab-Dab-D-Phe(4-NH2)-Lue-Dab-Dab-Thr]] (X2-[Dab]T[Dab][Dab][Dab][dPhe(4-NH2)]L[Dab][Dab]T; lactam 4-C) | 2 (≈ 1.64 µM) | 1 (≈ 0.821 µM) | 2 (≈ 1.64 µM) | 128 (≈ 105 µM) | 1 (≈ 0.821 µM) | 166 ± 15.7 (≈ 137 µM)
4 | CCCCCCCC(=O)N[C@@H](CCN)C(=O)N[C@H](C(=O)N[C@@H](CO)C(=O)N[C@H]1CCNC(=O)[C@H]([C@@H](C)O)NC(=O)[C@H](CCN)NC(=O)[C@H](CCN)NC(=O)[C@H]([C@@H](C)O)NC(=O)[C@@H](CC(C)C)NC(=O)[C@H](CCN)NC1=O)[C@@H](C)O [Compound 111, octanoyl-Dab-Thr-Ser-ring(4-10)[Dab-Dab-D-Leu-Thr-Dab-Dab-Thr]] (Octanoyl-[Dab]TS[Dab][Dab][dL]T[Dab][Dab]T; lactam 4-C) | 0.5 (≈ 0.442 µM) | 0.5 (≈ 0.442 µM) | 1 (≈ 0.885 µM) | 64 (≈ 56.6 µM) | 1 (≈ 0.885 µM) | –
5 | CCCCCCCC(=O)N[C@@H](CCN)C(=O)N[C@H](C(=O)N[C@@H](CCN)C(=O)N[C@H]1CCNC(=O)[C@H](CC(C)C)NC(=O)[C@H](CCN)NC(=O)[C@H](CCN)NC(=O)[C@H](CC(C)C)NC(=O)[C@@H](Cc2ccccc2)NC(=O)[C@H](CCN)NC1=O)[C@@H](C)O [Compound 129, octanoyl-Dab-Thr-Dab-ring(4-10)[Dab-Dab-D-Phe-Lue-Dab-Dab-Lue]] (Octanoyl-[Dab]T[Dab][Dab][Dab][dF]L[Dab][Dab]L; lactam 4-C) | 4 (≈ 3.33 µM) | 4 (≈ 3.33 µM) | 4 (≈ 3.33 µM) | 8 (≈ 6.66 µM) | 4 (≈ 3.33 µM) | –

Second part, led by results:

Row | MIC K. pneumoniae ATCC BAA-2146 (NDM-1) [1] [µg/mL] | MIC E. coli ATCC 25922 [2] [µg/mL] | MIC P. aeruginosa ATCC 27853 [3] [µg/mL] | MIC S. epidermidis ATCC 12228 [4] [µg/mL] | MIC A. baumannii ATCC 19606 [5] [µg/mL] | SMILES | IC50 at 72 h [6] [µg/mL]
6 | 1 (≈ 0.814 µM) | 0.5 (≈ 0.407 µM) | 2 (≈ 1.63 µM) | 16 (≈ 13 µM) | 0.25 (≈ 0.203 µM) | CC[C@H](C)CCCCC(=O)N[C@@H](CCN)C(=O)N[C@H](C(=O)N[C@@H](CCN)C(=O)N[C@H]1CCNC(=O)[C@H]([C@@H](C)O)NC(=O)[C@H](CCN)NC(=O)[C@H](CCN)NC(=O)[C@H](CC(C)C)NC(=O)[C@@H](Cc2ccc(C#N)cc2)NC(=O)[C@H](CCN)NC1=O)[C@@H](C)O [Compound 13, (S)-6-methyloctanoyl-Dab-Thr-Dab-ring(4-10)[Dab-Dab-D-Phe(4-CN)-Lue-Dab-Dab-Thr]] (X2-[Dab]T[Dab][Dab][Dab][dPhe(4-CN)]L[Dab][Dab]T; lactam 4-C) | 186 ± 11.3 (≈ 151 µM)
7 | 1 (≈ 0.864 µM) | 0.5 (≈ 0.432 µM) | 1 (≈ 0.864 µM) | >128 | 1 (≈ 0.864 µM) | CC[C@H](C)CCCCC(=O)N[C@@H](CCN)C(=O)N[C@H](C(=O)N[C@H](CCN)C(=O)N[C@H]1CCNC(=O)[C@H]([C@@H](C)O)NC(=O)[C@H](CCN)NC(=O)[C@H](CCN)NC(=O)[C@H]([C@@H](C)O)NC(=O)[C@@H](CC(C)C)NC(=O)[C@H](CCN)NC1=O)[C@@H](C)O [Compound 30, (S)-6-methyloctanoyl-Dab-Thr-D-Dab-ring(4-10)[Dab-Dab-D-Leu-Thr-Dab-Dab-Thr]] (X2-[Dab]T[dDab][Dab][Dab][dL]T[Dab][Dab]T; lactam 4-C) | 145 ± 12.1 (≈ 125 µM)
8 | 0.5 (≈ 0.429 µM) | 0.5 (≈ 0.429 µM) | 2 (≈ 1.72 µM) | >128 | 0.25 (≈ 0.215 µM) | CCCCCCCC(=O)N[C@@H](CCN)C(=O)N[C@H](C(=O)N[C@H](CO)C(=O)N[C@H]1CCNC(=O)[C@H]([C@@H](C)O)NC(=O)[C@H](CCN)NC(=O)[C@H](CCN)NC(=O)[C@H]([C@@H](C)O)NC(=O)[C@@H](Cc2ccccc2)NC(=O)[C@H](CCN)NC1=O)[C@@H](C)O [Compound 117, octanoyl-Dab-Thr-D-Ser-ring(4-10)[Dab-Dab-D-Phe-Thr-Dab-Dab-Thr]] (Octanoyl-[Dab]T[dS][Dab][Dab][dF]T[Dab][Dab]T; lactam 4-C) | –
9 | 1 (≈ 0.849 µM) | 0.5 (≈ 0.425 µM) | 1 (≈ 0.849 µM) | >128 | 1 (≈ 0.849 µM) | CC(C)CCCCC(=O)N[C@@H](CCN)C(=O)N[C@H](C(=O)N[C@H](CCN)C(=O)N[C@H]1CCNC(=O)[C@H]([C@@H](C)O)NC(=O)[C@H](CCN)NC(=O)[C@H](CCN)NC(=O)[C@H]([C@@H](C)O)NC(=O)[C@@H](Cc2ccccc2)NC(=O)[C@H](CCN)NC1=O)[C@@H](C)O [Compound 144, 6-methylheptanoyl-Dab-Thr-D-Dab-ring(4-10)[Dab-Dab-D-Phe-Thr-Dab-Dab-Thr]] ({Heptanoyl(6-Me)}-[Dab]T[dDab][Dab][Dab][dF]T[Dab][Dab]T; lactam 4-C) | –
